Laboratory results published in patent US12410220B2, “Modulation of mammalian cell lineage by synthetic immodulins” (priority 2021, dated 2025).
Peptide text beside a SMILES is read from it.

Columns and labels:
[1] = Experiment 4D binding to FITC-labelled heparin; details: biotinylated peptide 1 ug/well; 1 ug FITC-labelled heparin, 90 minutes
Experimental: (§1) Streptavidin-coated 96-well plates (G-Biosciences, St. Louis, MO) were pre-treated with biotinylated peptides [see Example 1 for key] at 1 ug/well, at room temperature for 60 minutes. The plate was washed with PBS buffer and then 1 ug FITC-labelled heparin or hyaluronic acid in 100 uL PBS buffer was added per well (all tests in quadruplicate). Incubation proceeded for 90 minutes at room temperature, followed by two PBS washes. The plate was read in a standard laboratory fluorometer (488/525 nm exitation/[…]) and the counts normalized for immX3 peptide binding=100. Values statistically above background are shown in bold font. **p<0.05 versus immX3AVD.

[2] = Experiment 4D binding to FITC-labelled hyaluronic acid; details: biotinylated peptide 1 ug/well; 1 ug FITC-labelled hyaluronic acid, 90 minutes
Experimental: as §1

THP1-Dual monocytes [3] = assay: THP1-Dual monocyte differentiation assay, cytokine protocol; type: cell-based, human; details: peptide 330 nM, 24 hours, relative to immX3AVD = 100
Experimental: (§2) Mammalian cell differentiation assays using THP1-Dual monocytes reporter cell line (Invivogen Inc, San Diego, CA) seeded at 2×10e5 cells per well in 96-well plates and cultured at 37 degrees C. in RPMI-1640 growth medium plus 10% fetal bovine serum and 1% penicillin/streptomycin, then treated for 24 hours with either 100 ng/ml Phorbol 12-myristate 13-acetate (PMA protocol; Cayman Chemical Company, Ann Arbor, MI) or a mixture of IL-4 (100 ng/ml), GM-CSF (100 ng/ml), TNF-alpha (20 ng/ml) and ionomycin (200 ng/ml) (Cytokine protocol; Peprotech, Rocky Hill, NJ). Peptide (330 nM) was then added, and incubation continued for an additional 24 hours. Culture supernatants were then assayed for CCL22. Plates with adherent cells were washed with PBS and assayed for immunoreactivity of surface markers such as CD169, Clec9a, Clec12a or MHCII using fuorescent tag- or biotin-labeled anti-human antibodies purchased from Miltenyi Biotec (Auburn, CA) and a relevant secondary detection reagent, or by fluorescence counts.

[4] = Ferric iron-binding assay of biotinylated immodulin peptides; details: N-terminally biotinylated peptide, 400 ng per well, 60 min room temperature; immX3AVD = 100
Outline: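 N-terminally biotinylated peptides (400 ng/well) were tested for ferric iron binding in two formats: streptavidin-A488 complexes on Fe3+-charged NTA plates, or streptavidin-captured peptide probed with FITC-NTA·Fe3+. Each step was 60 min at room temperature with fluorescence read at 525 nm. Values are normalized to immX3AVD control (100) and averaged across both protocols.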

THP1-Dual monocytes [5] = assay: THP1-Dual monocyte differentiation assay, PMA protocol; type: cell-based, human; details: peptide 330 nM, 24 hours, relative to immX3AVD = 100
Experimental: as §2

## CC(C)[C@H](NC(=O)[C@H](C)NC(=O)[C@H](Cc1c[nH]c2ccccc12)NC(=O)[C@H](CS)NC(=O)[C@H](Cc1ccccc1)NC(=O)CNC(=O)[C@H](CCCNC(=N)N)NC(=O)[C@H](CCCCN)NC(=O)[C@H](CCCNC(=N)N)NC(=O)CNC(=O)[C@H](CCCCN)NC(=O)[C@H](CO)NC(=O)[C@@H]1CCCN1C(=O)[C@H](CCCNC(=N)N)NC(=O)[C@H](CS)NC(=O)[C@H](CCC(N)=O)NC(=O)[C@H](CCCCN)NC(=O)[C@H](CCCCN)NC(=O)[C@H](CCCCN)NC(=O)[C@H](Cc1ccc(O)cc1)NC(=O)[C@H](Cc1ccccc1)NC(=O)CNC(=O)[C@H](CCCCN)NC(=O)[C@@H](N)CCCCN)C(=O)N[C@@H](CC(=O)O)C(=O)O [immX3AVD] (H-KKGFYKKKQCRPSKGRKRGFCWAVD-OH; N-terminus and C-terminus assumed)
[1]
  Heparin binding, counts normalized for immX3 peptide binding=100: 100.0 ± 4.7
[2]
  Hyaluronate binding, counts normalized for immX3 peptide binding=100: 100.0 ± 22.8
THP1-Dual monocytes [3]
  Clec12A(AU): 100 AU
[4]
  Ferric iron binding, fluorescence standardized to immX3AVD control peptide (100), Avg ± SD: 100.0
THP1-Dual monocytes [5]
  CD169+ (AU): 100 AU
